Laboratory results as given in patent publication US20250186503A1, “METHODS AND COMBINATIONS FOR TREATMENT AND T CELL MODULATION” (Juno Therapeutics, Inc., priority 2018, published 2025).

How the values were obtained:
[1] = test system: Raji and Granta-519 tumor cells; experiment: CAR T function against Raji and Granta-519 tumor cells after concurrent treatment during chronic stimulation; type: cell-based, human; parameters: dose or concentration left out as unconfirmed
[2] = test system: Granta-519 tumor spheroids; experiment: Granta-519 tumor spheroids, concurrent versus rescue treatment of long-term stimulated CAR T cells; type: cell-based, human; parameters: cytokine levels at day 5: dose or concentration left out as unconfirmed
Method: The long-term stimulated anti-CD19 CAR-expressing T cells were co-cultured by incubation with Granta-519 tumor spheroids and cells were assessed at various time points for cytolytic function and cytokine function. During concurrent treatments Compound 1 was present during the long-term stimulation but was not present during the co-culture with target cells. During the rescue treatment Compound 1 was not present during the long-term stimulation but was present during the co-culture with target cells.

[3] = given for five days followed by a two day rest period (5/7 days), subjects with DLBCL; cited from earlier work
anti-CD19 CAR+ T cells = experiment: CD25 and PD-1 surface expression on anti-CD19 CAR+ T cells incubated with K562-CD19 cells; type: cell-based, human
Method: After 120 hours of culture, cells were isolated and assessed by flow cytometry for surface expression of CD25 or PD-1 in CD4+ or CD8+ T cell subsets.

RPMI-8226 [4] = experiment: Cytolytic activity against RPMI-8226 after seven days incubation with BCMA-conjugated beads; type: cell-based, human
Method: Cytolytic activity of CAR+ T cells after incubation with BCMA-conjugated beads was assessed by incubation with the BCMA-expressing target cell line RPMI-8226, which is a BCMA+multiple myeloma cell line. […] The number of viable cells was normalized to cells at day 0 prior to incubation with the RPMI-8226 target cells.

RPMI-8226 [5] = details: read-out: sensitivity to lenalidomide; cited from earlier work
RPMI-8226 [6] = experiment: 3D myeloma model (reconstructed bone marrow embedded with RPMI-8226); type: cell-based, human; details: 1.0 μM
Source text: To assess cell function in the context of a three-dimensional (3-D) human BCMA-expressing tissue microenvironment, a reconstructed bone marrow (rBone™) (z[…], San Jose, CA) was embedded with BCMA-expressing RPMI-8226.
After 2 or 7 days, cells were isolated and assessed by flow cytometry for surface expression of CD3, CD25, CD4, and CD8.

OPM-2 = OPM-2 human multiple myeloma orthotopic mouse model, Study 2; type: in vivo
Method: In a further study, NOD/Scid/gc^−/− (NSG) mice were injected (i.v.) with OPM-2-luciferase cells as described in Study 1 above and allowed to engraft for 14 days prior to CAR-T (or mock) cell; infusion (i.v.).
At 14 days after tumor cell injection (day 0), a subtherapeutic dose of CAR+ T cells (1×10^6 CAR-T cells (generated from two different donors)) or mock control cells was injected intravenously. Data are presented as mean±SEM. For in vivo survival, a Gehan-Breslow-Wilcoxon test was used to compare groups.
FIG. 10E depicts the results of tumor burden assessment through day 60, as analyzed by the bioluminescence […]. […] P values were obtained by likelihood ratio tests comparing the full model with the effect of interest against the model without the effect of interest.
Blood from the treated mice was collected for CAR-T pharmacokinetic analysis, and cells were stained with antibodies to exclude mouse-specific cells (H2-kd, TER119, and muCD45) and analyzed by flow cytometry. Cells were gated on CD45+CD3+ CAR+ and the cells per microliter of blood was determined. For pharmacokinetic measurements, each time point was analyzed by one-way ANOVA and Tukey post-hoc test. FIGS. 10G and 10H show the flow cytometric analysis of mock control cells and CAR-T cells in the blood of the mice at days 8, 14, 22, and 28 following injection of the CAR-T cells from two donors.

[7] = concurrent lenalidomide (from day −1), vs vehicle with anti-BCMA CAR T alone

SMILES | cytolytic activity (tumor cell number over time) ([1]; 0. and Compound 1 concurrent, 2.5:1 E:T) | IFN-γ and TNF-α production ([1]; 24 hours, both cell lines) | cytokine levels at day 5 ([2]; concurrent treatment) | tumor spheroid size at day 9 ([2]; concurrent treatment with long-term stimulation) | cytokine levels at day 5 ([2]; delayed treatment with Compound 1) | tumor spheroid size at day 9 ([2]; subsequent treatment after long-term stimulation) | maximum tolerated dose (MTD) [3] [mg] | CD25 expression in CD4+ and CD8+ T cells (anti-CD19 CAR+ T cells; 1600 nM, E:T 2.5:1, 120 hours) | surface expression of PD-1 in CD4+ or CD8+ T cells (anti-CD19 CAR+ T cells; up to 1600 nM, 120 hours) | RPMI 8226 target cell viability without CAR T cells (RPMI-8226 [4]; 5 μM) | cytolytic activity of the CAR+ T cells (RPMI-8226 [4]; 5 μM preincubation during the seven day bead incubation) | killing activity (RPMI-8226 [4]; lenalidomide present during the cell killing assay) | IC50 (RPMI-8226 [5]) [µM] | CD25+ expression in CD4+ and CD8+ T cell populations (RPMI-8226 [6]) | total number of CD3+ cells at day 7 (RPMI-8226 [6]; cultures with anti-BCMA CAR+ T cells) | tumor growth and tumor burden in mice administered CAR+ T cells (OPM-2; 10 mg/kg i.p. daily, 1×10^6 CAR-T cells, both donors, through day 60) | survival, donor 1 and donor 2 (OPM-2; [7]) | tumor burden, donor 1 (OPM-2; [7]) | CAR T counts in the peripheral blood after 7 days (OPM-2; concurrent lenalidomide dosing regimen, not at later time points) | mock CAR T effect on tumor burden, donor 1 (OPM-2; lenalidomide with mock cells)
Cc1nc2cccc(N)c2c(=O)n1C1CCC(=O)NC1=O (centres unmarked) [Compound 1, 3-(5-amino-2-methyl-4-oxo-4H-quinazolin-3-yl)-piperidine-2,6-dione] | improved | increased relative to vehicle control | enhanced IFN-γ | concentration dependent decrease in tumor volume | enhanced production of both IFN-γ and TNF-α | concentration dependent decrease in tumor volume | 4 | – | – | – | – | – | – | – | – | – | – | – | – | –
Nc1cccc2c1CN(C1CCC(=O)NC1=O)C2=O (centres unmarked) [lenalidomide, 3-(4-amino-1-oxo-1,3-dihydro-2H-isoindol-2-yl)piperidine-2,6-dione] | – | – | – | – | – | – | – | higher levels | No difference | did not directly influence target cell viability | increased | did not substantially affect | 6.43 | increase | increase | slower tumor growth and reduced tumor burden | increased survival | significant decrease | increased | small, but significant
